Our source for the IC50 and AC50 values is US20240239811A1, “5-(5-(PIPERIDIN-4-YL)THIENO[3,2-C]PYRAZOL-2-YL]INDAZOLE DERIVATIVES AND RELATED COMPOUNDS AS MODULATORS FOR SPLICING NUCLEIC ACIDS AND FOR THE T” (REMIX THERAPEUTICS INC., priority 2020, published 2024).

Some results are limits rather than exact numbers.

Usually IC50 stands for the point on the concentration scale where inhibition reaches its midpoint. A word on the AC50: it is the concentration giving half of the maximal activity seen. A low value points to greater potency.

Assay type in all cases: cell-based
For one assay, the system named is SMN2 CJ mRNA. Kind of assay: Gene panel canonical junction qPCR assay, SMN2. As to conditions: Table 6, decrease in CJ mRNA, read-out: SMN2 IC50 (decrease in CJ mRNA levels). The gist of the method: (§1)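 A673 or K562 cells treated 24 h at 37° C with 11-point 3-fold dilutions, top 10 uM, DMSO ≤0.25%. CJ mRNA quantified by RT-qPCR with exon-junction-spanning probeset, ΔΔCt vs housekeeping gene (GAPDH, GUSB or PPIA) and DMSO control. IC50 from 4-parameter fit of percentage CJ decrease.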
A general note: Real-time PCR tracks product formation cycle by cycle.

A further assay relates to HTT CJ mRNA. As to the kind of experiment: Gene panel canonical junction qPCR assay, HTT. As to conditions: Table 6, decrease in CJ mRNA, read-out: HTT IC50 (decrease in CJ mRNA levels). The method in brief:
as §1

Another assay has as its system Target C CJ mRNA. As to the kind of experiment: Gene panel canonical junction qPCR assay, Target C. To be noted: Table 6, decrease in CJ mRNA, read-out: Target C IC50 (decrease in CJ mRNA levels). The method in brief: as §1
A further assay has as its system HTT mRNA. Kind of assay: Splicing assay (RT-qPCR) monitoring HTT splice variants, canonical (CJ) and alternative (AJ) junction. To be noted: 50% response, A673 or K562 cell line, 24 hours; for IC50: decrease in CJ mRNA; for AC50: increase in AJ mRNA. The gist of the method:
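A673 or K562 cells were treated 24 h with an 11-point 3-fold dilution series (top 10 uM, ≤0.25% DMSO) at 37 °C. HTT canonical- and alternative-junction mRNAs were quantified in lysates by one-step RT-qPCR. Values were normalized to PPIA (A673) or GAPDH/GUSB (K562).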

Turning to `Cc1cn2cc(-n3cc4cc(C5CCNCC5)sc4n3)cc(F)c2n1` [Compound 156], the IC50 in the assay on SMN2 CJ mRNA was < 100 nM; in the assay on HTT CJ mRNA, < 100 nM; in the assay with Target C CJ mRNA, 100 to 1000 nM; with HTT mRNA, < 100 nM. Also, the AC50 with HTT mRNA was in the range of 100 to 1000 nM.

Consider `Cc1cn2nc(-n3cc4sc(C5CCNCC5)cc4n3)nc2c(C)n1` [Compound 170], for which the IC50 in the assay on SMN2 CJ mRNA, with HTT CJ mRNA, in the assay on Target C CJ mRNA and with HTT mRNA was 1000 to 10000 nM in each case. For the same compound, the AC50 in the assay with HTT mRNA was 1000 to 10000 nM.

As to `Cc1cn2nc(-c3nc4sc(C5=CCNCC5)cc4s3)cc(C)c2n1` [Compound 198, 4-(2-{2,8-dimethylimidazo[1,2-b]pyridazin-6-yl}thieno[2,3-d][1,3]thiazol-5-yl)-1,2,3,6-tetrahydropyridine], the IC50 with SMN2 CJ mRNA is < 100 nM; with HTT CJ mRNA, < 100 nM; in the assay with Target C CJ mRNA, 1000 to 10000 nM; with HTT mRNA, < 100 nM. This compound also came in with an AC50 in the assay on HTT mRNA of 100 to 1000 nM.

Regarding `Cc1cn2cc(-c3cc4cn(C5CCNCC5)nc4s3)cc(C)c2n1` [Compound 216], the half-inhibitory concentration (IC50) was < 100 nM in the assay on SMN2 CJ mRNA, < 100 nM with HTT CJ mRNA, 100 to 1000 nM in the assay on Target C CJ mRNA and < 100 nM in the assay with HTT mRNA. In addition, the concentration at half-maximal activity (AC50) in the assay with HTT mRNA was < 100 nM.

As to `COc1c(-c2cc3cn(C4CCNCC4)nc3s2)nn2cc(C)nc(C)c12` [Compound 219, 4-(5-{3-methoxy-4,6-dimethylpyrazolo[1,5-a]pyrazin-2-yl}thieno[2,3-c]pyrazol-2-yl) piperidine], the concentration for half-maximal inhibition (IC50) is 1000 to 10000 nM in the assay with SMN2 CJ mRNA, > 10000 nM in the assay on HTT CJ mRNA, > 10000 nM with Target C CJ mRNA and > 10000 nM in the assay on HTT mRNA. Besides, the AC50 with HTT mRNA is > 10000 nM.

Take `Cc1cn2cc(-c3cc4cn(C5CCNCC5)nc4s3)cc(Cl)c2n1` [Compound 226]: the IC50 in the assay with SMN2 CJ mRNA is < 100 nM; in the assay with HTT CJ mRNA, < 100 nM; in the assay on Target C CJ mRNA, 100 to 1000 nM; with HTT mRNA, < 100 nM. Moreover, the AC50 with HTT mRNA is < 100 nM.

As to `Cn1cc2cc(-n3cc4cc(C5CCNCC5)sc4n3)c(O)cc2n1` [Compound 220], the concentration for half-maximal inhibition (IC50) with SMN2 CJ mRNA, in the assay with HTT CJ mRNA, in the assay on Target C CJ mRNA and in the assay on HTT mRNA was 1000 to 10000 nM throughout. Besides, the half-maximal activity concentration (AC50) with HTT mRNA fell in the range of 1000 to 10000 nM.

As for `C[C@@H]1C[C@H](c2cc3sc(-c4cc(F)c5nn(C)cc5c4)nc3s2)CCN1` [Compound 192, 7-fluoro-2-methyl-5-[5-(2-methylpiperidin-4-yl)thieno[2,3-d][1,3]thiazol-2-yl]indazole], the IC50 in the assay with SMN2 CJ mRNA, with HTT CJ mRNA, in the assay on Target C CJ mRNA and with HTT mRNA was < 100 nM each time. Also, the AC50 with HTT mRNA was < 100 nM.

Take `c1n[nH]cc1-n1cc2cc(C3CCNCC3)sc2n1` [Compound 180]: the IC50 in the assay with SMN2 CJ mRNA, with HTT CJ mRNA, with Target C CJ mRNA and in the assay on HTT mRNA was > 10000 nM in each case. In the assay with HTT mRNA, the AC50 was > 10000 nM.

For the compound `Cn1cc2cc(-c3cc4cn(C5CCNCC5)nc4s3)c(O)c(F)c2n1` [Compound 215], the half-maximal inhibitory concentration (IC50) with SMN2 CJ mRNA is < 100 nM; in the assay on HTT CJ mRNA it was 100 to 1000 nM; in the assay with Target C CJ mRNA it was 100 to 1000 nM; with HTT mRNA, 100 to 1000 nM. Besides, the concentration at half-maximal activity (AC50) with HTT mRNA lay within 100 to 1000 nM.

On to `CN(C)C1CCN(c2cc3sc(-c4cc(F)c5nn(C)cc5c4)nc3s2)CC1` [Compound 154, 1-[2-(7-fluoro-2-methylindazol-5-yl)thieno[2,3-d][1,3]thiazol-5-yl]-N,N-dimethylpiperidin-4-amine], for which the IC50 with SMN2 CJ mRNA was < 100 nM; with HTT CJ mRNA it was 100 to 1000 nM; in the assay on Target C CJ mRNA, 100 to 1000 nM; in the assay on HTT mRNA, 100 to 1000 nM. The compound further came in with a half-maximal activity concentration (AC50) in the assay with HTT mRNA of 100 to 1000 nM.

For `Cn1cc2cc(-c3nc4sc(C5CCNCC5)cc4s3)c(O)c(F)c2n1` [Compound 206, 7-fluoro-2-methyl-5-[5-(piperidin-4-yl)thieno[2,3-d][1,3]thiazol-2-yl]indazol-6-ol], the IC50 in the assay with SMN2 CJ mRNA is < 100 nM; in the assay with HTT CJ mRNA it was < 100 nM; with Target C CJ mRNA it was 100 to 1000 nM; with HTT mRNA it was < 100 nM. Moreover, in the assay with HTT mRNA, the AC50 was < 100 nM.

For `Cc1cn2cc(-n3cc4sc(C5CCNCC5)cc4n3)nc2c(C)n1` [Compound 181], the IC50 in the assay with SMN2 CJ mRNA was 1000 to 10000 nM; with HTT CJ mRNA it was 1000 to 10000 nM; in the assay on Target C CJ mRNA, > 10000 nM; with HTT mRNA it was 1000 to 10000 nM. This compound also came in with an AC50 with HTT mRNA of 1000 to 10000 nM.

For `Cc1cn2cc(-n3cc4cc(C5CCNCC5)sc4n3)cc(Cl)c2n1` [Compound 165], the IC50 with SMN2 CJ mRNA was < 100 nM; in the assay with HTT CJ mRNA, < 100 nM; in the assay with Target C CJ mRNA it was 100 to 1000 nM; with HTT mRNA it was < 100 nM. Besides, the AC50 in the assay on HTT mRNA was < 100 nM.

As for `Cn1cc2cc(-n3cc4cc(C5CCNCC5)sc4n3)cc(F)c2n1` [Compound 104, 7-fluoro-2-methyl-5-[5-(piperidin-4-yl)thieno[2,3-c]pyrazol-2-yl] indazole], the 50% inhibitory concentration (IC50) with SMN2 CJ mRNA is < 100 nM; in the assay with HTT CJ mRNA it was < 100 nM; in the assay on Target C CJ mRNA, 100 to 1000 nM; with HTT mRNA it was < 100 nM. In the assay on HTT mRNA, the half-maximal activity concentration (AC50) was 100 to 1000 nM.

For `Cc1nc2c(F)cc(-n3cc4sc(C5CCNCC5)cc4n3)cc2s1` [Compound 168], the concentration for half-maximal inhibition (IC50) in the assay with SMN2 CJ mRNA is 100 to 1000 nM; in the assay with HTT CJ mRNA, 1000 to 10000 nM; with Target C CJ mRNA, > 10000 nM; in the assay on HTT mRNA it was 1000 to 10000 nM. The compound further gave an AC50 in the assay with HTT mRNA of 1000 to 10000 nM.

Take `Cn1cc2cc(-c3nc4sc(N5CCC56CCCNC6)cc4s3)cc(F)c2n1` (stereo not drawn) [Compound 202, 1-[2-(7-fluoro-2-methylindazol-5-yl)thieno[2,3-d][1,3]thiazol-5-yl]-1,6-diazaspiro[3.5]nonane]: the IC50 with SMN2 CJ mRNA is 1000 to 10000 nM; in the assay with HTT CJ mRNA it was > 10000 nM; in the assay with Target C CJ mRNA it was 1000 to 10000 nM; with HTT mRNA, > 10000 nM. The half-maximal activity concentration (AC50) in the assay on HTT mRNA was > 10000 nM.

As for `Cc1cn2cc(-n3cc4sc(C5CCNCC5)cc4n3)ncc2n1` [Compound 169], the half-inhibitory concentration (IC50) with SMN2 CJ mRNA, with HTT CJ mRNA, with Target C CJ mRNA and in the assay on HTT mRNA was 1000 to 10000 nM throughout. For the same compound, the AC50 in the assay on HTT mRNA fell in the range of 1000 to 10000 nM.

Take `Cc1cn2nc(-c3nc4sc(C5=CCOCC5)cc4s3)cc(C)c2n1` [Compound 195, 6-[5-(3,6-dihydro-2H-pyran-4-yl)thieno[2,3-d][1,3]thiazol-2-yl]-2,8-dimethylimidazo[1,2-b]pyridazine]: the IC50 in the assay on SMN2 CJ mRNA, in the assay on HTT CJ mRNA, with Target C CJ mRNA and in the assay with HTT mRNA was 100 to 1000 nM throughout. Also, the AC50 with HTT mRNA is 100 to 1000 nM.

For the compound `Cc1cn2nc(-c3nc4sc(C5CNC5)cc4s3)cc(C)c2n1` [Compound 235, 3-(2-{2,8-dimethylimidazo[1,2-b]pyridazin-6-yl}thieno[2,3-d] [1,3]thiazol-5-yl) azetidine], the IC50 in the assay with SMN2 CJ mRNA is 100 to 1000 nM; in the assay with HTT CJ mRNA, 1000 to 10000 nM; in the assay on Target C CJ mRNA it was 1000 to 10000 nM; with HTT mRNA, 1000 to 10000 nM. Further, the AC50 in the assay on HTT mRNA lay within 1000 to 10000 nM.

Take `CN1CCC2(CC1)CCN2c1cc2sc(-c3cc(F)c4nn(C)cc4c3)nc2s1` [Compound 204, 1-[2-(7-fluoro-2-methylindazol-5-yl)thieno[2,3-d][1,3]thiazol-5-yl]-7-methyl-1,7-diazaspiro [3.5]nonane]: the IC50 in the assay with SMN2 CJ mRNA, in the assay with HTT CJ mRNA, in the assay with Target C CJ mRNA and in the assay on HTT mRNA was 1000 to 10000 nM throughout. The compound also registered a concentration at half-maximal activity (AC50) in the assay with HTT mRNA of 1000 to 10000 nM.
